Data as given in patent publication US5432165A, “Methods for the treatment of infection caused by Hepatitis B virus (HBV)” (priority 1992, dated 1995).
“Also recorded” adds a separate entry of the source.

Assay: Safety of oral FIAU in HIV-infected patients with chronic hepatitis B
Experimental: Cohorts of five HIV-infected patients with chronic hepatitis B were studied at the tolerated doses. Plasma levels of FIAU and its major deiodinated metabolite FAU were determined two hours after dosing (peak levels) and just prior to dosing (trough levels) following the initial dose of FIAU and again on Days 3, 7, and 14 in order to make estimates of pharmacokinetic parameters including accumulation of drug or principal metabolite.
This study is an open label, uncontrolled trial. […] Tolerated doses could be studied in an additional five patient cohort of chronic hepatitis B patients, who were potentially more at risk of side effects. A month of post-treatment follow-up was provided for the hepatitis cohorts due to the known propensity of this disease to "flare" after therapy.
Additionally, all patients had to have completed the screening tests within four weeks of starting therapy, except for diagnostic HSV, VZV or CMV cultures. Those enrolled into the five patient cohorts of chronic hepatitis B patients had the same entry requirements, except that they had to have a history of chronic hepatitis B and be surface antigen positive. Liver function tests (AST, ALT, GGT, and bilirubin) could be Grade 2 or less at study entry for these patients. Patients receiving pentamidine aerosol for prophylaxis of recurrent Pneumocystis pneumonia could continue on this therapy during the study.
Patients were evaluated clinically at the screening visit, and on Days 1, 3, 7, 10, and 14. The hepatitis patients were additionally evaluated on Days 21 and 42. The blood chemistry and urinalysis tests were repeated additionally on Days 2 and 5.
Clinical evaluations consisted of a physical exam, which included a test of lower extremity muscle strength, medical history, systems review, grading of non-laboratory signs and symptoms of toxicity, and listing of concomitant medications. Additionally, at visits with clinical evaluations after Day 1, any adverse experiences were recorded.
The Day 3 safety profile consisted of the clinical evaluation, hematology, serum biochemistry, urinalysis, stool guaiac tests and plasma samples for peak and trough levels of FIAU and its major metabolite FAU. On Day 7 patients underwent clinical evaluation, an ECG, peak and trough serum samples, T cell profile, and hematology, serum biochemistry, urinalysis, and stool guaiac tests. A clinical evaluation, hematology, serum biochemistry, and urinalysis tests were done on Day 10. These were repeated for the Day 14 evaluation with the addition of an ECG, T cell profile, stool guaiac, and peak and trough plasma samples. The post-treatment evaluations of the hepatitis patients on Days 21 and 42 consisted of a clinical evaluation and serum biochemistry tests.

O=c1[nH]c(=O)n([C@@H]2O[C@H](CO)[C@@H](O)[C@@H]2F)cc1I [FIAU, 1-(2'-deoxy-2'-fluoro-β-D-arabinofuranosyl)-5-iodouracil]
tolerance compared with 1.0 or 0.5 mg/kg-day (0.1 mg/kg-day): much better tolerated | incidents of fatigue (0.1 mg/kg-day, four patients): only one incident of fatigue | tolerance of oral FIAU (1.0 mg/kg-day TID 14 days, six hepatitis patients): completed the 14 days of therapy with no untoward effects; also recorded: relatively well-tolerated; also recorded: All six patients completed the full course of therapy | increase in AST and ALT values, Patient 406 (1.0 mg/kg-day, 28 days after completion of therapy): ~5 fold | myositis (1.0 mg/kg-day, Patient 101, after dosing was completed): severe myositis; also recorded: One patient experienced an episode of myositis | average drop in lymphocytes (1.0 mg/kg-day, hepatitis patients): 750 cells/mm^3 | decrease in average CD4 count (1.0 mg/kg-day, hepatitis patients, Baseline to Day 14, p=0.03): 40% | average CD4 count at Day 14 (1.0 mg/kg-day, hepatitis patients, 691 at Baseline): 415 | average WBC at end of therapy (1.0 mg/kg-day, hepatitis patients, baseline average 4,690, p=0.0085): 3,430 | average drop in neutrophils (1.0 mg/kg-day, hepatitis patients, not significant): approximately 300 cell/mm^3 | decrease in lymphocytes (1.0 mg/kg-day, hepatitis patients, p=0.00125): 39% | significance of increases in liver enzymes during therapy (1.0 mg/kg-day, hepatitis patients, p>0.1): increases in liver enzymes were not | patients with mild to moderate nausea (1.0 mg/kg-day, six hepatitis patients): Four patients reported mild to moderate nausea | change of AST and ALT values, Patient 401 (1.0 mg/kg-day, very end of therapy, back below Baseline after a month of follow-up): doubling | toxicity overall (doses of 0.1 to 1.0 mg/kg-day, HIV-infected patients with chronic hepatitis B): have not produced unacceptable toxicity | incidence of fatigue (the other groups (1.0 and 0.5 mg/kg-day)): 40-50%
